Drawing on patent US9452980B2, “Substituted benzamides” (Hoffmann-La Roche Inc., priority 2009, dated 2016), this text covers Ki for 34 molecules.

Structures are written as SMILES. Structures can show the parent of a compound that is named as a salt. Where two headings read alike, the source gives them in different places.

One assay concerns the target mouse TAAR1 (Mus musculus (Mouse), UniProt Q923Y8). Nature of the assay: Radioligand binding assay on mouse TAAR1. As to conditions: read-out: Ki (μM) mouse. An outline of the steps: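 Membranes were from HEK293 cells stably expressing mouse TAAR1. Compounds from 10 pM to 10 μM, in duplicate, competed with [3H]-(S)-4-[(ethyl-phenyl-amino)-methyl]-4,5-dihydro-oxazol-2-ylamine for 1 h at 4 °C. Nonspecific binding was defined with 10 μM unlabelled ligand, and bound radioactivity was read by filtration and scintillation.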

In another assay the target is rat TAAR1 (Rattus norvegicus (Rat), UniProt Q923Y9). The experiment in a line: Radioligand binding assay on rat TAAR1. As to conditions: read-out: Ki (μM) rat. An outline of the steps: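 Membranes from HEK293 cells stably expressing rat TAAR1, with Kd checked per batch by saturation. Competition with ³H-(S)-4-[(ethyl-phenyl-amino)-methyl]-4,5-dihydro-oxazol-2-ylamine, compounds 10 pM–10 μM in duplicate, 1 hr at 4 °C. Filtration then scintillation counting; nonspecific binding defined with 10 μM unlabeled ligand.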
rat TAAR1, sequence (Q923Y9 whole entry): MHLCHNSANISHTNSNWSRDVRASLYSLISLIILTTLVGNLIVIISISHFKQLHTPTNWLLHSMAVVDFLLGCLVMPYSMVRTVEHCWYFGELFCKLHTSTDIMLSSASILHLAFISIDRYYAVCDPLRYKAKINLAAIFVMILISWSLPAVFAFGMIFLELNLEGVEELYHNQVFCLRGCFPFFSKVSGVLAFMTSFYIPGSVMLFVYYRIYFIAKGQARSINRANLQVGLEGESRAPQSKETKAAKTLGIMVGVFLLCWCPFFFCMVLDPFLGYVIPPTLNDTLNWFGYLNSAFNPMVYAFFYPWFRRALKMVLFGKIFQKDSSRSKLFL

The mark [1] stands for this setting: rat TAAR1, HEK-293 membranes, second value of cell mouse/rat.
The mark [2] stands for this setting: mouse TAAR1, HEK-293 membranes, first value of cell mouse/rat.

mouse TAAR1, sequence (Q923Y8 whole entry): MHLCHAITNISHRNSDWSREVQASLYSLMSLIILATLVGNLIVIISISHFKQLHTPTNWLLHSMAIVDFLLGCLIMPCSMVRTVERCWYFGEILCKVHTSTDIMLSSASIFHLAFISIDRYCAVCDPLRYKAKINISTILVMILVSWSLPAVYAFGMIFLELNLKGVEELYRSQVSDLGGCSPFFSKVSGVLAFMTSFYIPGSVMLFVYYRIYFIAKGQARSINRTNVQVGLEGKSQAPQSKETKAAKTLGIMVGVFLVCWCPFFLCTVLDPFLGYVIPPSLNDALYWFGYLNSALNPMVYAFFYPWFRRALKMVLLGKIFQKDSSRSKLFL

With `CSc1ccc(C(=O)Nc2ccc([C@@H]3CCCNC3)cc2)cn1` [Example 244, (S)-6-(Methylthio)-N-(4-(piperidin-3-yl)phenyl)nicotinamide hydrochloride], the inhibitory constant (Ki) amounted to 0.268 µM at mouse TAAR1 and 0.0049 µM at rat TAAR1 (setting [1]).

Regarding `CCCc1ccc(C(=O)Nc2ccc(C3CCCNC3)cc2)cc1` (racemic) [Example 137, (RS)—N-(4-Piperidin-3-yl-phenyl)-4-propyl-benzamide hydrochloride], the values for the Ki on mouse TAAR1 (setting [2]) and at rat TAAR1 (setting [1]) were 0.0062 µM and 0.0015 µM, respectively.

Turning to `COc1ccc(C(=O)Nc2ccc(C3CCCNC3)cc2)cc1` (racemic) [Example 186, (RS)-4-Methoxy-N-(4-(piperidin-3-yl)phenyl)benzamide hydrochloride], the Ki at mouse TAAR1 (setting [2]) is 0.0486 µM; on rat TAAR1 (setting [1]), 0.0027 µM.

As for `O=C(Nc1ccc(C2CCNC2)cc1)OCCc1cccc(C(F)(F)F)c1` (racemic) [Example 123, (RS)-(4-Pyrrolidin-3-yl-phenyl)-carbamic acid 2-(3-trifluoromethyl-phenyl)-ethyl ester], the Ki at mouse TAAR1 (setting [2]) is 0.0014 µM; on rat TAAR1 (setting [1]), 0.0022 µM.

With `O=C(Nc1ccc([C@@H]2CCCNC2)cc1)c1ccc(Br)nc1` [Example 252, (S)-6-Bromo-N-(4-(piperidin-3-yl)phenyl)nicotinamide 2,2,2-trifluoroacetate], the Ki at mouse TAAR1 (setting [2]) stood at 0.0783 µM; on rat TAAR1 (setting [1]), 0.0044 µM.

Take `COc1ccc(C(=O)Nc2ccc(C3CNCCO3)cc2)cc1` (racemic) [Example 190, (RS)-4-Methoxy-N-(4-(morpholin-2-yl)phenyl)benzamide hydrochloride]: the figures for the Ki on mouse TAAR1 (setting [2]) and on rat TAAR1 (setting [1]) were 0.0501 µM and 0.0021 µM, respectively.

On to `Cc1ccc(C(=O)Nc2ccc([C@H]3CCCNC3)cc2)cc1C` [Example 260, (R)-3,4-Dimethyl-N-(4-(piperidin-3-yl)phenyl)benzamide hydrochloride], for which the values for the Ki at mouse TAAR1 and at rat TAAR1 (setting [1]) were 0.016 µM and 0.0012 µM, respectively.

Turning to `O=C(Nc1ccc(CCC2CCCN2)cc1)c1ccc(Cl)c(Cl)c1` (racemic) [Example 154, (RS)-3,4-Dichloro-N-[4-(2-pyrrolidin-2-yl-ethyl)-phenyl]-benzamide hydrochloride], the Ki came out at 0.0082 µM on mouse TAAR1 (setting [2]) and 0.0002 µM at rat TAAR1 (setting [1]).

`O=C(Nc1ccc(Cl)cc1)Nc1ccc(CCC2CCNC2)cc1` (racemic) [Example 116, (RS)-1-(4-Chloro-phenyl)-3-[4-(2-pyrrolidin-3-yl-ethyl)-phenyl]-urea hydrochloride]: the Ki on mouse TAAR1 (setting [2]) amounted to 0.0608 µM; at rat TAAR1 (setting [1]), 0.0014 µM.

Turning to `O=C(Nc1ccc(C2CCCNC2)cc1)Nc1ccc(Cl)nc1` (racemic) [Example 79, (RS)-1-(6-Chloro-pyridin-3-yl)-3-(4-piperidin-3-yl-phenyl)-urea hydrochloride], the Ki at mouse TAAR1 (setting [2]) is 0.0075 µM; on rat TAAR1 (setting [1]), 0.0924 µM.

Take `O=C(Nc1ccc(C2CCNC2)cc1)OC(c1ccc(Cl)cc1)C(F)(F)F` (racemic) [Example 130, (RS)-(4-Pyrrolidin-3-yl-phenyl)-carbamic acid (RS)-1-(4-chloro-phenyl)-2,2,2-trifluoro-ethyl ester]: the Ki on mouse TAAR1 (setting [2]) stood at 0.0017 µM; on rat TAAR1 (setting [1]) it was 0.0169 µM.

`C#Cc1ccc(C(=O)Nc2ccc(CCC3CCCCN3)cc2)cc1` (racemic) [Example 177, (RS)-4-Ethynyl-N-(4-(2-(piperidin-2-yl)ethyl)phenyl)benzamide hydrochloride]: the Ki stood at 0.114 µM at mouse TAAR1 (setting [2]) and 0.0067 µM on rat TAAR1 (setting [1]).

In the case of `O=C(Nc1ccc([C@H]2CCNC2)cc1)c1ccc(OCC(F)(F)F)nc1` [Example 204, (R)—N-(4-(pyrrolidin-3-yl)phenyl)-6-(2,2,2-trifluoroethoxy)nicotinamide hydrochloride], the Ki is 0.005 µM at mouse TAAR1 (setting [2]) and 0.0043 µM at rat TAAR1 (setting [1]).

Take `O=C(Nc1ccc(C2CNCCO2)cc1)c1ccc(Oc2ccc(Cl)cc2)cc1` (racemic) [Example 206, (RS)-4-(4-Chlorophenoxy)-N-(4-(morpholin-2-yl)phenyl)benzamide hydrochloride]: the Ki worked out at 0.0026 µM at mouse TAAR1 (setting [2]) and 0.0011 µM at rat TAAR1 (setting [1]).

Regarding `O=C(Nc1ccc(C2CNCCO2)cc1)c1ccc(OCC2CC2)cc1` (racemic) [Example 214, (RS)-4-Cyclopropylmethoxy-N-(4-morpholin-2-yl-phenyl)-benzamide hydrochloride], the Ki at mouse TAAR1 stood at 0.0057 µM; on rat TAAR1 (setting [1]), 0.0016 µM.

In the case of `O=C(Nc1ccc(C2CNCCO2)cc1)c1ccc(N2CCCC2)nc1` (racemic) [Example 279, (RS)—N-(4-(Morpholin-2-yl)phenyl)-6-(pyrrolidin-1-yl)nicotinamide hydrochloride], the Ki was found to be 0.146 µM on mouse TAAR1 (setting [2]) and 0.0044 µM at rat TAAR1 (setting [1]).

For `O=C(Nc1ccc(N2CCNCC2)cc1)c1ccc(Cl)cc1` [Example 59, 4-Chloro-N-(4-piperazin-1-yl-phenyl)-benzamide hydrochloride], the results for the Ki on mouse TAAR1 (setting [2]) and on rat TAAR1 (setting [1]) were 0.0256 µM and 0.0014 µM, respectively.

Regarding `CC1(COc2ccc(C(=O)Nc3ccc(C4CNCCO4)cc3)cc2)COC1` (racemic) [Example 228, (RS)-4-((3-Methyloxetan-3-yl)methoxy)-N-(4-(morpholin-2-yl)phenyl)benzamide], the Ki was found to be 0.199 µM at mouse TAAR1 (setting [2]) and 0.0608 µM at rat TAAR1 (setting [1]).

For the molecule `O=C(Nc1ccc(C2CCNC2)cc1)c1ccc2ccccc2n1` (racemic) [Example 84, (RS)-Quinoline-2-carboxylic acid (4-pyrrolidin-3-yl-phenyl)-amide hydrochloride], the Ki on mouse TAAR1 (setting [2]) was determined as 0.008 µM; at rat TAAR1 (setting [1]) it was 0.0381 µM.

In the case of `CSc1ccc(C(=O)Nc2ccc(C3CNCCO3)cc2)cc1` (stereo in doubt) [Example 267, (S)-4-(Methylthio)-N-(4-(morpholin-2-yl)phenyl)benzamide hydrochloride], the values for the Ki at mouse TAAR1 (setting [2]) and on rat TAAR1 were 0.0476 µM and 0.0011 µM, respectively.

Consider `O=C(Nc1ccc(C2CCNC2)cc1)c1ccc(Cl)cc1Cl` (racemic) [Example 19, (RS)-2,4-Dichloro-N-(4-pyrrolidin-3-yl-phenyl)-benzamide hydrochloride], for which the figures for the Ki at mouse TAAR1 (setting [2]) and on rat TAAR1 (setting [1]) were 0.0035 µM and 0.0189 µM, respectively.

Regarding `O=C(Nc1ccc(CCC2CCCCN2)cc1)c1ccc(F)cc1` (racemic) [Example 170, (RS)-4-Fluoro-N-(4-(2-(piperidin-2-yl)ethyl)phenyl)benzamide hydrochloride], the Ki on mouse TAAR1 (setting [2]) came out at 0.234 µM; on rat TAAR1 (setting [1]) it was 0.0158 µM.

For `Cc1cccc(C(=O)Nc2ccc([C@@H]3CCCNC3)cc2)c1` [Example 253, (S)-3-Methyl-N-(4-(piperidin-3-yl)phenyl)benzamide], the Ki came out at 0.36 µM on mouse TAAR1 and 0.0035 µM at rat TAAR1 (setting [1]).

With `C#Cc1ccc(C(=O)Nc2ccc(C3CCNC3)cc2)cc1` (racemic) [Example 54, (RS)-4-Ethynyl-N-(4-pyrrolidin-3-yl-phenyl)-benzamide hydrochloride], the values for the Ki at mouse TAAR1 (setting [2]) and at rat TAAR1 were 0.0021 µM and 0.0152 µM, respectively.

With `O=C(Nc1ccc(C2CCCNC2)cc1)c1ccc(Cl)nc1` (racemic) [Example 74, (RS)-6-Chloro-N-(4-piperidin-3-yl-phenyl)-nicotinamide hydrochloride], the Ki was found to be 0.0049 µM at mouse TAAR1 (setting [2]) and 0.0672 µM on rat TAAR1 (setting [1]).

In the case of `O=C(Nc1ccc([C@@H]2CCCNC2)cc1)c1ccc(C(F)(F)F)nc1` [Example 242, (S)—N-(4-(Piperidin-3-yl)phenyl)-6-(trifluoromethyl)nicotinamide hydrochloride], the Ki on mouse TAAR1 worked out at 0.037 µM; at rat TAAR1, 0.0089 µM.

Take `O=C(Nc1ccc(C2CCCNC2)cc1)c1ccc(OCC(F)(F)F)cn1` (racemic) [Example 191, (RS)—N-(4-(Piperidin-3-yl)phenyl)-5-(2,2,2-trifluoroethoxy)picolinamide hydrochloride]: the Ki at mouse TAAR1 (setting [2]) was determined as 0.011 µM; on rat TAAR1 (setting [1]) it was 0.0074 µM.

With `CCOc1ccc(C(=O)Nc2ccc(CCC3CCCN3)cc2)nc1` (racemic) [Example 172, (RS)-5-Ethoxy-N-(4-(2-(pyrrolidin-2-yl)ethyl)phenyl)picolinamide hydrochloride], the Ki came out at 0.113 µM at mouse TAAR1 (setting [2]) and 0.0077 µM at rat TAAR1 (setting [1]).

Take `Cc1cc(C(=O)Nc2ccc(C3CNCCO3)cc2)cc(Cl)n1` (racemic) [Example 273, (RS)-2-Chloro-6-methyl-N-(4-(morpholin-2-yl)phenyl)isonicotinamide hydrochloride]: the Ki at mouse TAAR1 was found to be 0.0343 µM; at rat TAAR1 (setting [1]), 0.008 µM.

In the case of `O=C(Nc1ccc([C@H]2CCCNC2)cc1)c1ccc(Cl)cc1` [Example 113, 4-Chloro-N—((R)-4-piperidin-3-yl-phenyl)-benzamide], the Ki at mouse TAAR1 (setting [2]) worked out at 0.0095 µM; at rat TAAR1 (setting [1]), 0.004 µM.

Take `COc1cc(C(=O)Nc2ccc([C@H]3CCCNC3)cc2)ccc1Cl` [Example 200, (R)-4-Chloro-3-methoxy-N-(4-(piperidin-3-yl)phenyl)benzamide hydrochloride]: the Ki at mouse TAAR1 (setting [2]) came to 0.0039 µM; on rat TAAR1 (setting [1]) it was 0.0022 µM.

For `O=C(Nc1ccccc1)Nc1ccc(C2CCNC2)cc1` (racemic) [Example 6, (RS)-1-Phenyl-3-(4-pyrrolidin-3-yl-phenyl)-urea hydrochloride], the Ki on mouse TAAR1 (setting [2]) was 0.0032 µM; at rat TAAR1 it was 0.0295 µM.

Regarding `Cn1cc(-c2nc(C(=O)Nc3ccc(C4CNCCO4)cc3)cs2)cn1` (racemic) [Example 296, (RS)-2-(1-Methyl-1H-pyrazol-4-yl)-N-(4-(morpholin-2-yl)phenyl)thiazole-4-carboxamide hydrochloride], the Ki is 0.0645 µM on mouse TAAR1 (setting [2]) and 0.0847 µM at rat TAAR1 (setting [1]).

For the molecule `O=C(Nc1ccc(C2CNCCO2)cc1)Nc1ccc(C(F)(F)F)cc1` (racemic) [Example 291, (RS)-1-(4-(Morpholin-2-yl)phenyl)-3-(4-(trifluoromethyl)phenyl)urea hydrochloride], the Ki at mouse TAAR1 (setting [2]) came out at 0.0012 µM; on rat TAAR1, 0.0017 µM.
